The test system of the assay is A375 Sensitive cells. Briefly: Viability test, trypan blue exclusion, A375 Sensitive cells. It counts as cell-based, human. Conditions: Homo sapiens, A-375; for viability at 5 µM / viability at 10 µM: viable cells as percentage of DMSO control. An excerpt: Different melanoma cell lines were purchased from the American Tissue Culture Collection: A375 and WM9 cells are mutated on B-Raf, CDKN2A and PTEN proteins; SKmel28 cells are mutated on B-Raf and P53 proteins; 1205Lu cells are mutated on B-Raf and PTEN proteins; G-361 cells are mutated on B-Raf and CDKN2A proteins; C8161 cells are mutated on B-Raf and K-Ras proteins; WM3912 cells are mutated on B-Raf and CDKN2A proteins; MeWo cells are mutated on P53 and CDKN2A proteins; WM3918 presents no mutations on characteristic proteins.
For trypan blue staining, […] of cells (melanoma and normal human cells) were aseptically transferred to a 1.5 mL clear Eppendorf tube and incubated for 3 min at room temperature with an equal volume of 0.4% trypan blue solution. Viable cells were counted and the results are expressed as the percentage of the value of control cells. All the experiments are performed 3 times in triplicate.
A375 Sensitive cells were treated with different concentrations of the synthesized molecules (5.0 μM or 10 μM) for different times (24 hr or 48 hr) or with DMSO (Control) for 12 or 48 hr. At the end of the stimulation, viable cells were counted using the trypan blue dye exclusion method. The results are normalized as percentages compare to the control.
A375 Sensitive cells were treated with 5 μM of CRO15 for different times (2 hr, 4 hr, 6 hr, 8 hr, 12 hr, 24 hr or 48 hr) or with 5 μM of PLX4032 (B-Raf inhibitor) for 48 hr or with DMSO (Control) for 48 hr. At the end of stimulation, viable cells were counted using the trypan blue dye exclusion method. The results are normalized as percentages compare to the control and data means±SEM of three independent experiments performed in triplicate *p<0.05; **p<0.01; ***p<0.001.
A375 Sensitive cells were treated with different concentrations of CRO15 (0.5 μM, 2.5 μM, 5.0 μM, 7.5 μM, 50 μM) for 48 hr or with 5 μM of PLX4032 (B-Raf inhibitor) for 48 hr or with DMSO (Control) for 48 hr. At the end of the stimulation, viable cells were counted using the trypan blue dye exclusion method. The results are normalized as percentages compare to the control and data means±SEM of three independent experiments performed in triplicate *p<0.05; **p<0.01; ***p<0.001.
A375 sensitive and resistant melanoma cells were treated with 5 μM of CRO15 for 48 hr or with 5 μM of PLX4032 for 48 hr or with DMSO (Control). At 48 hours, viable cells were counted using the trypan blue dye exclusion method. The results are normalized as percentages compare to the control and data means±SEM of three independent experiments performed in triplicate *p<0.05; **p<0.01; ***p<0.001.

Where [1] appears, read: 24 h, read-out: Viab A375 5 μM/ 24 h.
Where [2] appears, read: 48 h, read-out: Viab A375 5 μM/ 48 h.
The mark [3] stands for this setting: 24 h, read-out: Viab A375 10 μM/ 24 h.
[4] abbreviates: 48 h, read-out: Viab A375 10 μM/ 48 h.

Each structure is given as a SMILES string. Where two headings read alike, the source gives them in different places.

Broadly, the IC50 is the concentration that inhibits the measured activity by half.

In the case of `N=C(NC(=N)c1cccc(F)c1)Nc1nc2ccccc2s1` [MTF 346, N—(N-(benzo[d]thiazol-2-yl)carbamimidoyl)-3-fluorobenzimidamide], the viability at 5 µM by setting is: under setting [1], 66.9%; under setting [2], 10.6%. In addition, the viability at 10 µM runs as follows: under setting [3], 43.2%; under setting [4], 12.9%.

Take `Nc1nc(Nc2ccccc2SSc2ccccc2Nc2nc(N)nc(-c3ccc(I)cc3)n2)nc(-c2ccc(I)cc2)n1` [MTF 328, N2,N2′-(disulfanediylbis(2,1-phenylene))bis(6-(4-iodophenyl)-1,3,5-triazine-2,4-diamine)]: the viability at 5 µM turned out to be 50% under setting [1] and 9.4% under setting [2]. The viability at 10 µM under setting [3] was determined as 27.8% and the viability at 10 µM under setting [4] amounted to 3.4%.

In the case of `Nc1nc(Nc2ccccc2SSc2ccccc2Nc2nc(N)nc(-c3ccc(C(F)(F)F)cc3)n2)nc(-c2ccc(C(F)(F)F)cc2)n1` [MTF 394, N2,N2′-(disulfanediylbis(2,1-phenylene))bis(6-(4-(trifluoromethyl)phenyl)-1,3,5-triazine-2,4-diamine)], the viability at 5 µM stood at 13.1% under setting [1] and 4.4% under setting [2]. Moreover, the viability at 10 µM runs as follows: under setting [3], 4.5%; under setting [4], 1.1%.

Turning to `Cc1nc(NC(=N)NC(=N)c2cccc(Cl)c2)sc1C` [MTF 301, 3-chloro-N—(N-(4,5-dimethylthiazol-2-yl)carbamimidoyl)benzimidamide], the viability at 5 µM was 74% under setting [1] and 47% under setting [2]. For the same compound, the viability at 10 µM by setting is: under setting [3], 106%; under setting [4], 31.6%.

With `Cc1nc(NC(=N)NC(=N)c2cccnc2)sc1C` [MTF 298, N—(N-(4,5-dimethylthiazol-2-yl)carbamimidoyl)nicotinimidamide], the viability at 5 µM was determined as 97.2% under setting [1] and 73.6% under setting [2]. Besides, the viability at 10 µM came out at 87.5% under setting [3] and 54.7% under setting [4].

As to `Nc1nc(Nc2ccccc2SSc2ccccc2Nc2nc(N)nc(-c3cccc([N+](=O)[O-])c3)n2)nc(-c2cccc([N+](=O)[O-])c2)n1` [MTF 445, N2,N2′-(disulfanediylbis(2,1-phenylene))bis(6-(3-nitrophenyl)-1,3,5-triazine-2,4-diamine)], the viability at 5 µM is, setting by setting: under setting [1], 62.6%; under setting [2], 35.2%. Moreover, the viability at 10 µM stood at 72.4% under setting [3] and 16.3% under setting [4].

In the case of `N=c1nc(C(Cl)(Cl)Cl)nc(Nc2cc(Cl)ccc2O)[nH]1` [MTF 374, 2-((4-amino-6-(trichloromethyl)-1,3,5-triazin-2-yl)amino)-4-chlorophenol], the viability at 5 µM under setting [1] came to 47% and the viability at 5 µM under setting [2] amounted to 69.2%. Also, the viability at 10 µM by setting is: under setting [3], 24%; under setting [4], 27.7%.

With `COc1cc(-c2nc(N)nc(Nc3ccccc3SSc3ccccc3Nc3nc(N)nc(-c4cc(OC)c(OC)c(OC)c4)n3)n2)cc(OC)c1OC` [MTF 446, N2,N2′-(disulfanediylbis(2,1-phenylene))bis(6-(3,4,5-trimethoxyphenyl)-1,3,5-triazine-2,4-diamine)], the viability at 5 µM runs as follows: under setting [1], 62.6%; under setting [2], 13%. The viability at 10 µM under setting [3] worked out at 16.3% and the viability at 10 µM under setting [4] is 1.8%.

Take `Cc1csc(NC(=N)NC(=N)c2ccccc2Cl)n1` [MTF 284, 2-chloro-N—(N-(4-methylthiazol-2-yl)carbamimidoyl)benzimidamide]: the viability at 5 µM was found to be 80.1% under setting [1] and 117% under setting [2]. In addition, the viability at 10 µM is, setting by setting: under setting [3], 104%; under setting [4], 76.9%.

For the compound `N=C(NC(=N)c1cccnc1)Nc1nc(-c2ccccc2)cs1` [MTF 273, N—(N-(4-phenylthiazol-2-yl)carbamimidoyl)nicotinimidamide], the viability at 5 µM under setting [1] is 46% and the viability at 5 µM under setting [2] was determined as 48%. Besides, the viability at 10 µM was 100% under setting [3] and 100% under setting [4].

With `N#Cc1cccc(-c2nc(N)nc(Nc3ccccc3SSc3ccccc3Nc3nc(N)nc(-c4cccc(C#N)c4)n3)n2)c1` [MTF 325, 3,3′-(((disulfanediylbis(2,1-phenylene))bis(azanediyl))bis(6-amino-1,3,5-triazine-4,2-diyl))dibenzonitrile], the viability at 5 µM under setting [1] was found to be 58.1% and the viability at 5 µM under setting [2] amounted to 30.9%. For the same compound, the viability at 10 µM stood at 71% under setting [3] and 29.7% under setting [4].

As for `N=C(NC(=N)c1ccccc1)Nc1nc2ccccc2s1` [MTF 248, N—(N-(benzo[d]thiazol-2-yl)carbamimidoyl)benzimidamide], the viability at 5 µM stood at 100% under setting [1] and 100% under setting [2]. The viability at 10 µM was found to be 80% under setting [3] and 138% under setting [4].

`Cc1nc(NC(=N)NC(=N)c2ccccc2Cl)sc1C` [MTF 300, 2-chloro-N—(N-(4,5-dimethylthiazol-2-yl)carbamimidoyl)benzimidamide]: the viability at 5 µM amounted to 96% under setting [1] and 60% under setting [2]. The viability at 10 µM was 50.8% under setting [3] and 35.9% under setting [4].

As for `N=C(NC(=N)c1cccc(Br)c1)Nc1nc(-c2ccccc2)cs1` [MTF 256, 3-bromo-N—(N-(4-phenylthiazol-2-yl)carbamimidoyl)benzimidamide], the viability at 5 µM by setting is: under setting [1], 93.9%; under setting [2], 60%. In addition, the viability at 10 µM runs as follows: under setting [3], 66%; under setting [4], 95.7%.

Regarding `N=C(NC(=N)c1ccc(Cl)nc1)Nc1nc2ccccc2s1` [MTF 379, N—(N-(benzo[d]thiazol-2-yl)carbamimidoyl)-6-chloronicotinimidamide], the viability at 5 µM reads like this: under setting [1], 148%; under setting [2], 76.9%. Further, the viability at 10 µM reads like this: under setting [3], 95.7%; under setting [4], 86.2%.

As for `Nc1nc(Nc2ccccc2SSc2ccccc2Nc2nc(N)nc(-c3ccccc3)n2)nc(-c2ccccc2)n1` [MTF 326, N2,N2′-(disulfanediylbis(2,1-phenylene))bis(6-phenyl-1,3,5-triazine-2,4-diamine)], the viability at 5 µM runs as follows: under setting [1], 27.4%; under setting [2], 27.9%. For the same compound, the viability at 10 µM was 12.9% under setting [3] and 6.7% under setting [4].

Regarding `Cc1csc(NC(=N)NC(=N)c2ccccn2)n1` [MTF 289, N—(N-(4-methylthiazol-2-yl)carbamimidoyl)picolinimidamide], the viability at 5 µM was determined as 81.1% under setting [1] and 90.4% under setting [2]. Moreover, the viability at 10 µM runs as follows: under setting [3], 78.7%; under setting [4], 58.2%.

`Cc1nc(NC(=N)NC(=N)c2ccccn2)sc1C` [MTF 297, N—(N-(4,5-dimethylthiazol-2-yl)carbamimidoyl)picolinimidamide]: the viability at 5 µM under setting [1] is 86.2% and the viability at 5 µM under setting [2] came to 59.8%. For the same compound, the viability at 10 µM by setting is: under setting [3], 97.9%; under setting [4], 24.9%.

As to `CC(=O)c1cccc(C(=N)NC(=N)Nc2nc3ccccc3s2)c1` [MTF 255, 3-acetyl-N—(N-(benzo[d]thiazol-2-yl)carbamimidoyl)benzimidamide], the viability at 5 µM under setting [1] worked out at 26.1% and the viability at 5 µM under setting [2] came to 4.7%. The viability at 10 µM under setting [3] came out at 3.2% and the viability at 10 µM under setting [4] came out at 3.8%. In addition, the IC50 (A375, printed in the 10 μM/24 h column of Table 1, read-out: IC50 (converted)) is 2.3 µM.

Regarding `COc1ccc(C(=N)NC(=N)Nc2nc(C)cs2)cc1` [MTF 292, 4-methoxy-N—(N-(4-methylthiazol-2-yl)carbamimidoyl)benzimidamide], the viability at 5 µM by setting is: under setting [1], 88.1%; under setting [2], 83.3%. In addition, the viability at 10 µM is 142% under setting [3] and 71.9% under setting [4].

As to `N=C(NC(=N)c1ccccn1)Nc1nc(-c2cccc([N+](=O)[O-])c2)cs1` [MTF 259, N—(N-(4-(3-nitrophenyl)thiazol-2-yl)carbamimidoyl)picolinimidamide], the viability at 5 µM reads like this: under setting [1], 157%; under setting [2], 95.7%. The viability at 10 µM under setting [3] was 98% and the viability at 10 µM under setting [4] stood at 96.5%.

Values taken from US11440906B2, “Biguanide derivatives and their rearrangement products for use in the treatment of cancer” (CENTRE NATIONAL DE LA RECHERCHE SCIENTIFIQUE, priority 2017, dated 2022).
